Reference: the supplement of paper PMC5579334
± gives the standard deviation of the averaged measurements.

Assays:
[1] = test system: S1507-2; assay: drug sensitivity score (DSS, CellTiter-Glo viability, 72 h) (DSS (dimensionless)); higher = more sensitive; extreme values may be limits of the assay
Outline: (§1)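 MPNST cell lines and primary human Schwann cells were seeded at 750–1000 cells per well into 384-well plates preprinted with each compound at five concentrations in 10-fold steps, then incubated 72 h at 37 °C, 5% CO2. CellTiter-Glo ATP luminescence gave viability, scaled between vehicle and positive-control wells, with duplicates averaged where present. Curves were fitted with a four-parameter logistic model. Percent inhibition refers to the top concentration, while drug sensitivity score and relative IC50, censored at the top concentration, come from these fits.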

[2] = test system: ST8814; assay: as above
Outline: as §1

[3] = test system: STS26T; assay: as above
Outline: as §1

[4] = test system: HSC1 (primary human Schwann cells); assay: as above
Outline: as §1

[5] = test system: YST-1; assay: as above
Outline: as §1

[6] = test system: S462; assay: as above
Outline: as §1

[7] = test system: HS-PSS; assay: as above
Outline: as §1

[8] = test system: HSC2 (primary human Schwann cells); assay: as above
Outline: as §1

[9] = test system: HS-Sch-2; assay: as above
Outline: as §1

[10] = test system: S1507-2; assay: drug sensitivity score (DSS, CellTox-Green cytotoxicity, 72 h) (DSS (dimensionless)); higher = more cytotoxic; extreme values may be limits of the assay
Outline: (§2)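 For 72 h at 37 °C, MPNST cell lines and primary human Schwann cells were exposed in 384-well plates to five 10-fold compound dilutions. CellTox-Green, added before seeding at a final 1:1000 dilution, gave fluorescence from DNA released by disrupted cells. Signals were scaled to vehicle and positive-control wells, cultures failing plate quality control were left out, and four-parameter logistic fits were applied. Relative IC50 and drug sensitivity score were derived from the fits, with IC50 censored at the top concentration.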

[11] = test system: ST8814; assay: as above
Outline: as §2

[12] = test system: STS26T; assay: as above
Outline: as §2

[13] = test system: HSC1 (primary human Schwann cells); assay: as above
Outline: as §2

[14] = test system: HS-PSS; assay: as above
Outline: as §2

[15] = test system: HSC2 (primary human Schwann cells); assay: as above
Outline: as §2

[16] = test system: S1507-2; assay: % inhibition of CellTiter-Glo viability at highest tested concentration (72 h), relative to DMSO and benzethonium chloride controls; higher = more inhibition
Outline: as §1

[17] = test system: ST8814; assay: as above
Outline: as §1

[18] = test system: STS26T; assay: as above
Outline: as §1

[19] = test system: HSC1 (primary human Schwann cells); assay: as above
Outline: as §1

[20] = test system: YST-1; assay: as above
Outline: as §1

[21] = test system: S462; assay: as above
Outline: as §1

[22] = test system: HS-PSS; assay: as above
Outline: as §1

[23] = test system: HSC2 (primary human Schwann cells); assay: as above
Outline: as §1

[24] = test system: HS-Sch-2; assay: as above
Outline: as §1

Compound	drug sensitivity score [1]	drug sensitivity score [2]	drug sensitivity score [3]	drug sensitivity score [4]	drug sensitivity score [5]	drug sensitivity score [6]	drug sensitivity score [7]	drug sensitivity score [8]	drug sensitivity score [9]	drug sensitivity score [10]	drug sensitivity score [11]	drug sensitivity score [12]	drug sensitivity score [13]	drug sensitivity score [14]	drug sensitivity score [15]	% inhibition [16] [%]	% inhibition [17] [%]	% inhibition [18] [%]	% inhibition [19] [%]	% inhibition [20] [%]	% inhibition [21] [%]	% inhibition [22] [%]	% inhibition [23] [%]	% inhibition [24] [%]
CC(=O)c1c(C)c2cnc(Nc3ccc(N4CCNCC4)cn3)nc2n(C2CCCC2)c1=O [Palbociclib] (max concentration tested 10000 nM)	3.73 ± 0.74	1.84	3.39	5.26	3.89	8.25 ± 0.96	3.5	7.37	5.62	1.02 ± 1.1	0	0	0	0	0	38.8 ± 0.47	28	36.7	31.6	44.5	72.2 ± 6.1	41.6	45.6	68.8
O=C(CCBr)N1CCN(C(=O)CCBr)CC1 [Pipobroman] (max concentration tested 10000 nM)	0	0	0	0	0	0	0	0	0	0	0	0	0	0	0	-11.3 ± 2.3	-3.56	-2.55	0.741	4.98	-17 ± 7.2	1.73	0.945	9.93
Nc1cc(C(F)(F)F)c(-c2cc(N3CCOCC3)nc(N3CCOCC3)n2)cn1 [Buparlisib] (max concentration tested 10000 nM)	8.72 ± 0.83	8.12	9.07	6.85	12.1	8.35 ± 0.34	6.19	7.01	8.73	5.23 ± 2.9	4.69	8.28	5.07	0	7.46	88.421 ± 0.034	90.9	96.8	85.1	95.3	97.02 ± 0.16	70.9	88.1	95.2
Cc1cc(Nc2nc(N[C@@H](C)c3ncc(F)cn3)ncc2Cl)[nH]n1 [AZD1480] (max concentration tested 1000 nM)	0.0872 ± 0.12	0.0148	0.3	2.84	0.54	1.64 ± 0.2	0.78	0.934	0	5.43 ± 7.7	0	0	0	0	0.662	11.6 ± 8	10.4	18.1	37.6	20.3	26.4 ± 3.4	20.3	17	2.41
Cn1c(=O)n(-c2ccc(C(C)(C)C#N)cc2)c2c3cc(-c4cnc5ccccc5c4)ccc3ncc21 [Dactolisib] (max concentration tested 1000 nM)	15.8 ± 2.9	14.3	17.2	19.4	14.7	13.2 ± 0.72	14.4	19.4	13.9	0	0	0	0	0.12	0	66 ± 2.8	64	67.7	75	63.8	61 ± 0.72	69.8	78.3	61.8
C=CC(=O)N1CCC[C@@H](n2nc(-c3ccc(Oc4ccccc4)cc3)c3c(N)ncnc32)C1 [Ibrutinib] (max concentration tested 1000 nM)	0	0	0	0	0	0	1.17	0	0	0	0	0	0	0	0	-8.72 ± 4.8	2.81	2.46	-4.13	-1.93	-0.0582 ± 2.1	7.7	-1.15	0.01
COc1ccc(-c2ccc3c(N4CCOC[C@@H]4C)nc(N4CCOC[C@@H]4C)nc3n2)cc1CO [AZD8055] (max concentration tested 10000 nM)	22.5 ± 1.3	18	21	26.2	25.1	22.3 ± 1.8	17	27.2	17.9	0	0.371	0	0	0.77	0	85.4 ± 0.61	84.1	82	89.3	78.6	74.8 ± 1.4	70.7	89.9	75.8
O=C(O)CCCCC(CCSCc1ccccc1)SCc1ccccc1 (configuration not stated) [CPI-613] (max concentration tested 10000 nM)	0	0	0	0	0.06	0	0.36	0	0	0.502 ± 0.71	0	0	0	0	0	-8.09 ± 10	0.691	-2.54	-3.11	14.3	-9.93 ± 9.6	17	-1.05	-6.28
CC(C)c1cc(-c2n[nH]c(=O)n2-c2ccc3c(ccn3C)c2)c(O)cc1O [Ganetespib] (max concentration tested 1000 nM)	15.5	20.7	17.6	21.5	13.7	19.2	13.9	20.6	19.6	12.7	17.2	10.9	21.1	4.34	20.9	94.5	101	94.1	99.1	79.1	99.6	84.2	98.5	101
C/C(=C\c1csc(C)n1)[C@@H]1C[C@@H]2O[C@]2(C)CCC[C@H](C)[C@H](O)[C@@H](C)C(=O)C(C)(C)[C@@H](O)CC(=O)N1 [Ixabepilone] (max concentration tested 1000 nM)	3.26 ± 0.04	3.83	4.72	7.72	3.86	4.444 ± 0.0091	1.51	4.2	5.18	3.15 ± 0.92	4.33	5.61	4.19	0	3.03	62.7 ± 3.3	79.1	92.9	69.7	79	84.3 ± 4	39.3	62.1	91.8
CN(c1ccccc1CNc1nc(Nc2ccc3c(c2)CC(=O)N3)ncc1C(F)(F)F)S(C)(=O)=O (max concentration tested 10000 nM)	7.1 ± 0.82	7.26	9.12	14.5	10.6	11.5 ± 0.24	5.97	13.8	6.95	2.52 ± 0.6	3.58	6.59	1.33	0.56	1.33	71.3 ± 1.1	71.9	95.3	78.8	100	100.3 ± 0.78	83.9	84	101
Nc1nc(OCc2cc(Br)cs2)c2[nH]cnc2n1 [Lomeguatrib] (max concentration tested 10000 nM)	0	0	0	0	0	0	0.77	0	0	0	0	0	0	0	0	-7.24 ± 3.2	-0.939	-6.97	-5.66	-1.6	-14 ± 0.99	15.1	-5.93	-6.3
COc1cc(Nc2ncc(F)c(Nc3ccc4c(n3)NC(=O)C(C)(C)O4)n2)cc(OC)c1OC [Tamatinib] (max concentration tested 10000 nM)	0	0.365	0.0251	5.11	0	0	0	3.08	0.4	0.0129 ± 0.018	0.113	0.558	0	0	0.0662	-0.148 ± 3.2	11.9	10.2	37.9	-0.14	4.27 ± 6.2	9.72	36.1	13.4
